Measured values taken from patent US20220257552A1, “METHODS OF PRESCREENING AND TREATING BREAST CANCERS WITH SELECTIVE ANDROGEN RECEPTOR MODULATORS” (priority 2021, published 2022).

Test system: MCF-7-AR cells
Test: MCF-7-AR xenograft in ovariectomized, estradiol-supplemented mice
Format: in vivo
Method: Once tumors reached 100-200 mm^3, the animals were randomized and treated with vehicle or 30 mg/kg per day of Formula VIII. Tumor volumes and body weights were measured thrice weekly. At the end of 5 weeks of treatment, the animals were sacrificed, tumors weighed and stored for RNA and protein isolation and histology. * significance at P<0.05.
All animal protocols were approved by The University of Tennessee Health Science Center (UTHSC) Institutional Animal Care and Use Research Committee. Xenograft experiments were performed as previously published (Narayanan et al. (2014) PLoS One 9, e103202). Briefly, 3 million MCF-7 cells were suspended in 0.05 ml MEM+10% FBS and 0.05 ml Matrigel/nude mouse and were injected subcutaneously. Once the tumor size reached 100-200 mm^3, the animals were randomized and treated orally with the indicated drugs formulated in DMSO:PEG-300 (15:85). HCI-7, HCI-9, and HCI-13 PDXs were gifts kindly donated by Dr. Alana Welm (Huntsman Cancer Institute, Salt Lake City, Utah). HCI PDX tumor fragments (1 mm^3) were surgically implanted under the mammary fat pad in female NOD SCID Gamma (NSG) mice. Tumor volume was measured twice weekly for MCF-7 xenograft and once or twice weekly for HCI PDXs. At the end of the study, animals were sacrificed and tumors were excised, weighed, and stored for various analyses.

Q: Which results are given for `C[C@](O)(COc1ccc(C#N)cc1)C(=O)Nc1ccc(C#N)c(Cl)c1` [Formula VIII, (S)—N-(3-chloro-4-cyanophenyl)-3-(4-cyanophenoxy)-2-hydroxy-2-methylpropanamide]?
A: growth inhibition of xenografts (30 mg/kg per day, 5 weeks): greater than 50%; uterus weight (estrogen supplemented animals): inhibited
